Results reported in patent publication US11178871B2, “Herbicidal pyrimidine compounds” (BASF SE, priority 2016, dated 2021).

Tests used:
Format in all cases: in vivo
Apera spica-venti = test: greenhouse test, pre-emergence treatment, APESV
Source text: (§1) The culture containers used were plastic flowerpots containing loamy sand with approximately 3.0% of humus as the substrate. The seeds of the test plants were sown separately for each species.
(§2) For the pre-emergence treatment, the active ingredients, which had been suspended or emulsified in water, were applied directly after sowing by means of finely distributing nozzles. The containers were irrigated gently to promote germination and growth and subsequently covered with transparent plastic hoods until the plants had rooted. This cover caused uniform germination of the test plants, unless this had been impaired by the active ingredients.
(§3) Depending on the species, the plants were kept at 10-25° C. or 20-35° C., respectively.
(§4) The test period extended over 2 to 4 weeks. During this time, the plants were tended, and their response to the individual treatments was evaluated.
(§5) Evaluation was carried out using a scale from 0 to 100. 100 means no emergence of the plants, or complete destruction of at least the aerial moieties, and 0 means no damage, or normal course of growth. A good herbicidal activity is given at values of at least 70 and a very good herbicidal activity is given at values of at least 85.
(§6) The plants used in the greenhouse experiments were of the following species: […]

Echinocloa crus-galli [1] = test: greenhouse test, post-emergence treatment, ECHCG; settings: post-emergence
Source text: as §1
(§7) For the post-emergence treatment, the test plants were first grown to a height of 3 to 15 cm, depending on the plant habit, and only then treated with the active ingredients which had been suspended or emulsified in water. For this purpose, the test plants were either sown directly and grown in the same containers, or they were first grown separately as seedlings and transplanted into the test containers a few days prior to treatment.
as §3, §4, §5, §6

Avena fatua = test: greenhouse test, post-emergence treatment, AVEFA
Source text: as §1, §7, §3, §4, §5, §6

Echinocloa crus-galli [2] = test: greenhouse test, pre-emergence treatment, ECHCG
Source text: as §1, §2, §3, §4, §5, §6

Alopecurus myosuroides = test: greenhouse test, post-emergence treatment, ALOMY; settings: post-emergence
Source text: as §1, §7, §3, §4, §5, §6

Row | Structure (SMILES) | herbicidal activity (Apera spica-venti; 1000 g/ha) | herbicidal activity (Echinocloa crus-galli [1]; 1000 g/ha) | herbicidal activity (Avena fatua; 1000 g/ha) | herbicidal activity (Apera spica-venti; 2000 g/ha) | herbicidal activity (Echinocloa crus-galli [2]; 2000 g/ha) | herbicidal activity (Alopecurus myosuroides; 2000 g/ha) | herbicidal activity (Echinocloa crus-galli [1]; 2000 g/ha) | herbicidal activity (Avena fatua; 2000 g/ha) | herbicidal activity (Echinocloa crus-galli [2]; 1000 g/ha) | herbicidal activity (Alopecurus myosuroides; 1000 g/ha)
1 | Fc1ccc(-c2cnc(C3CC3)nc2-c2ccco2)c(Cl)c1 [Ex. 54] | very good (a very good herbicidal activity is given at values of at least 85) | very good (a very good herbicidal activity is given at values of at least 85) | very good (a very good herbicidal activity is given at values of at least 85) | – | – | – | – | – | – | –
2 | OC(Cc1nc(C2CC2)ncc1-c1ccccc1Cl)c1ccco1 (centres unmarked) [Ex. 106] | – | – | – | very good (a very good herbicidal activity is given at values of at least 85) | very good (a very good herbicidal activity is given at values of at least 85) | very good (a very good herbicidal activity is given at values of at least 85) | very good (a very good herbicidal activity is given at values of at least 85) | very good (a very good herbicidal activity is given at values of at least 85) | – | –
3 | COC(=O)Cc1nc(C2CC2)ncc1-c1ccccc1Br [Ex. 67] | – | – | – | very good (a very good herbicidal activity is given at values of at least 85) | – | very good (a very good herbicidal activity is given at values of at least 85) | good (A good herbicidal activity is given at values of at least 70) | very good (a very good herbicidal activity is given at values of at least 85) | – | –
4 | Brc1ccccc1-c1cnc(C2CC2)nc1-c1ccoc1 [Ex. 40] | – | – | – | very good (a very good herbicidal activity is given at values of at least 85) | very good (a very good herbicidal activity is given at values of at least 85) | very good (a very good herbicidal activity is given at values of at least 85) | – | very good (a very good herbicidal activity is given at values of at least 85) | – | –
5 | CC(O)C(O)c1nc(C2CC2)ncc1-c1ccccc1Cl (centres unmarked) [Ex. 147] | – | – | – | very good (a very good herbicidal activity is given at values of at least 85) | very good (a very good herbicidal activity is given at values of at least 85) | very good (a very good herbicidal activity is given at values of at least 85) | very good (a very good herbicidal activity is given at values of at least 85) | very good (a very good herbicidal activity is given at values of at least 85) | – | –
6 | COC(=O)C(C)c1nc(C2CC2)ncc1-c1cc(F)ccc1Cl (centres unmarked) [Ex. 159] | – | – | – | good (A good herbicidal activity is given at values of at least 70) | good (A good herbicidal activity is given at values of at least 70) | very good (a very good herbicidal activity is given at values of at least 85) | – | very good (a very good herbicidal activity is given at values of at least 85) | – | –
7 | Cc1oc(C(C)C)nc1-c1nc(C2CC2)ncc1-c1ccccc1Cl [Ex. 283] | – | – | – | very good (a very good herbicidal activity is given at values of at least 85) | good (A good herbicidal activity is given at values of at least 70) | very good (a very good herbicidal activity is given at values of at least 85) | very good (a very good herbicidal activity is given at values of at least 85) | very good (a very good herbicidal activity is given at values of at least 85) | – | –
8 | Clc1ccccc1-c1cnc(C2CC2)nc1C=C1CCCC1 [Ex. 128] | – | – | – | very good (a very good herbicidal activity is given at values of at least 85) | – | good (A good herbicidal activity is given at values of at least 70) | very good (a very good herbicidal activity is given at values of at least 85) | very good (a very good herbicidal activity is given at values of at least 85) | – | –
9 | Brc1ccccc1-c1cnc(C2CC2)nc1-c1cnco1 [Ex. 261] | very good (a very good herbicidal activity is given at values of at least 85) | very good (a very good herbicidal activity is given at values of at least 85) | very good (a very good herbicidal activity is given at values of at least 85) | – | – | – | – | – | very good (a very good herbicidal activity is given at values of at least 85) | very good (a very good herbicidal activity is given at values of at least 85)
10 | CCc1nc(C)c(-c2nc(C3CC3)ncc2-c2ccccc2Br)o1 [Ex. 290] | – | – | – | very good (a very good herbicidal activity is given at values of at least 85) | very good (a very good herbicidal activity is given at values of at least 85) | very good (a very good herbicidal activity is given at values of at least 85) | very good (a very good herbicidal activity is given at values of at least 85) | very good (a very good herbicidal activity is given at values of at least 85) | – | –
11 | Cc1nc(C)c(-c2nc(C3CC3)ncc2-c2cc(F)ccc2Cl)o1 [Ex. 284] | – | – | – | very good (a very good herbicidal activity is given at values of at least 85) | very good (a very good herbicidal activity is given at values of at least 85) | very good (a very good herbicidal activity is given at values of at least 85) | very good (a very good herbicidal activity is given at values of at least 85) | very good (a very good herbicidal activity is given at values of at least 85) | – | –
12 | OC(c1ccccc1)C(O)c1nc(C2CC2)ncc1-c1ccccc1Cl (centres unmarked) [Ex. 153] | – | – | – | very good (a very good herbicidal activity is given at values of at least 85) | very good (a very good herbicidal activity is given at values of at least 85) | very good (a very good herbicidal activity is given at values of at least 85) | very good (a very good herbicidal activity is given at values of at least 85) | very good (a very good herbicidal activity is given at values of at least 85) | – | –
13 | Brc1ccccc1-c1cnc(C2CC2)nc1C=C1CCC1 [Ex. 157] | – | – | – | very good (a very good herbicidal activity is given at values of at least 85) | very good (a very good herbicidal activity is given at values of at least 85) | very good (a very good herbicidal activity is given at values of at least 85) | very good (a very good herbicidal activity is given at values of at least 85) | very good (a very good herbicidal activity is given at values of at least 85) | – | –
14 | Brc1ccccc1-c1cnc(C2CC2)nc1-c1cocn1 [Ex. 287] | very good (a very good herbicidal activity is given at values of at least 85) | very good (a very good herbicidal activity is given at values of at least 85) | very good (a very good herbicidal activity is given at values of at least 85) | – | – | – | – | – | very good (a very good herbicidal activity is given at values of at least 85) | very good (a very good herbicidal activity is given at values of at least 85)
15 | OC(c1nc(C2CC2)ncc1-c1ccccc1Cl)C1(O)CCC1 (centres unmarked) [Ex. 154] | – | – | – | very good (a very good herbicidal activity is given at values of at least 85) | very good (a very good herbicidal activity is given at values of at least 85) | very good (a very good herbicidal activity is given at values of at least 85) | very good (a very good herbicidal activity is given at values of at least 85) | very good (a very good herbicidal activity is given at values of at least 85) | – | –
16 | Cc1nc(C)c(-c2nc(C3CC3)ncc2-c2ccccc2Cl)o1 [Ex. 243] | very good (a very good herbicidal activity is given at values of at least 85) | very good (a very good herbicidal activity is given at values of at least 85) | very good (a very good herbicidal activity is given at values of at least 85) | – | – | – | – | – | very good (a very good herbicidal activity is given at values of at least 85) | very good (a very good herbicidal activity is given at values of at least 85)
17 | Clc1ccccc1-c1cnc(C2CC2)nc1C=C1CCC1 [Ex. 71] | – | – | – | very good (a very good herbicidal activity is given at values of at least 85) | very good (a very good herbicidal activity is given at values of at least 85) | very good (a very good herbicidal activity is given at values of at least 85) | good (A good herbicidal activity is given at values of at least 70) | very good (a very good herbicidal activity is given at values of at least 85) | – | –
18 | COCc1nc(C2CC2)ncc1-c1ccccc1Cl [Ex. 22] | very good (a very good herbicidal activity is given at values of at least 85) | very good (a very good herbicidal activity is given at values of at least 85) | very good (a very good herbicidal activity is given at values of at least 85) | – | – | – | – | – | – | very good (a very good herbicidal activity is given at values of at least 85)
